Measurements: publication PMC5515969, “Effects of 31 FDA approved small-molecule kinase inhibitors on isolated rat liver mitochondria” (Archives of Toxicology, 2016)

Experiments:
[1] = tested on: isolated rat liver mitochondria; assay: Mitochondrial inner membrane potential (MMP), Rhodamine 123; format: biochemical; details: difference in signal between KI and DMSO treated samples at the end of experiments
Text: Fig. 3 KI effects on mitochondrial inner membrane potential (MMP). […] In a, c, data are means and standard derivations from three separate experiments. *p < 0.05 as compared to DMSO-treated samples at the end of experiments. In b, data are means of two independent experiments

RCC IV = RCC IV activity in submitochondrial particles; format: biochemical, rat; parameters: key to RCC IV at 50XCmax / RCC IV at 100XCmax: activity relative to DMSO-treated controls (control set as 1 = 100%); details: 50XCmax; DMSO treated samples set as 1; in %
In short: (§1)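 Inhibitors preincubated 15 min with submitochondrial particles (1 mg/ml) before activity readout. RCC I (rotenone-sensitive fraction) and I/V: A340, and RCC II: A600, each every 1 min for 6 min; RCC III/IV: A550 every 10 s for 2 min. Activities relative to DMSO control set as 1.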

[2] = 1 DILI positive, 0 negative according to labeling; ref product labeling; cited from earlier work
[3] = tested on: isolated rat liver mitochondria; assay: Mitochondrial swelling (absorbance at 535 nm); format: biochemical; details: difference in signal between KI and DMSO treated samples at the end of experiments; as to Swelling 5XCmax: key: 0 indicates that the drug had no effects (negative)
RCC II = target: T1, RCC II (Rattus norvegicus, UniProt P21913+Q641Z9+Q6PCT8+Q920L2); assay: RCC II activity in submitochondrial particles; format: biochemical; parameters: key: activity relative to DMSO-treated controls (control set as 1 = 100%); details: DMSO treated samples set as 1
T1 construct: Submitochondrial particles were prepared by subjecting the intact mitochondria to three successive freeze–thaw cycles; from tissue; host or cells: rat liver mitochondria, used as submitochondrial particles
T1 sequence (Q920L2 35-656): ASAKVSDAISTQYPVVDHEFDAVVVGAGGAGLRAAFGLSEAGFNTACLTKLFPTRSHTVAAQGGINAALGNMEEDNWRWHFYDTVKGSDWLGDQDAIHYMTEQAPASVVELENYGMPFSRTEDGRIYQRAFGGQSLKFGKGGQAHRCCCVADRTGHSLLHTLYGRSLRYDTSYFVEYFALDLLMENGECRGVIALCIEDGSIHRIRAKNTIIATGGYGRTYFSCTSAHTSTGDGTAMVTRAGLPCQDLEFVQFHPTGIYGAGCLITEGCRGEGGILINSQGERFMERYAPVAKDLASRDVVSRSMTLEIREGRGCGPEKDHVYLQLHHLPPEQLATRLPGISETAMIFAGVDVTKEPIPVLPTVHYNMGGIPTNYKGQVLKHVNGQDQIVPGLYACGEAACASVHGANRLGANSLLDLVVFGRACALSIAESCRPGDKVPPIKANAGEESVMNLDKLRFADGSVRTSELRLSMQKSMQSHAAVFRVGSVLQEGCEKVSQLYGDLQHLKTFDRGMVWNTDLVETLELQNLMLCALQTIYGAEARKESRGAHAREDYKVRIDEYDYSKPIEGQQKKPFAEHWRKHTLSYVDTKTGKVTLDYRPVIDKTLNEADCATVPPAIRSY
T1 sequence (P21913 31-282): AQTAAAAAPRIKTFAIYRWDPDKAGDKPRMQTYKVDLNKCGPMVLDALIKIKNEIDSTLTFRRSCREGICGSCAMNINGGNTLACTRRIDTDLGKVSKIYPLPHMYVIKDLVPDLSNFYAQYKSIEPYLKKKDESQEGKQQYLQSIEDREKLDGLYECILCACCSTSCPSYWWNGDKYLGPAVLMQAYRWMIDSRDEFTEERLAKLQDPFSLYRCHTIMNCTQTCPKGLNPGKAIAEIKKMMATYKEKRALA
T1 sequence (Q641Z9 1-169): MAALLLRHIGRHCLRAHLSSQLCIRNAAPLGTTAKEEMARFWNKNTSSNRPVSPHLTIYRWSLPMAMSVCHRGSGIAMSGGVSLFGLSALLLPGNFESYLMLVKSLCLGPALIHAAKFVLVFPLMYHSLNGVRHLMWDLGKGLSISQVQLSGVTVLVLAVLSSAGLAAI
T1 sequence (Q6PCT8 57-159): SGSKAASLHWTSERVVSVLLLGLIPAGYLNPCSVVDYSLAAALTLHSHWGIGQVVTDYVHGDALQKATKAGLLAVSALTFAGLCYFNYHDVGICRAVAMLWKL
In short: as §1

RCC I = RCC I activity in submitochondrial particles; format: biochemical, rat; parameters: key to RCC I at 10XCmax / RCC I at 100XCmax / RCC I at 50XCmax / RCC I at 30XCmax / RCC I at 20XCmax: activity relative to DMSO-treated controls (control set as 1 = 100%); details: 10XCmax; DMSO treated samples set as 1
In short: as §1

[4] = tested on: isolated rat liver mitochondria; assay: Mitochondrial oxygen consumption (glutamate/malate or succinate driven, state 4 and state 3); format: biochemical; details: DMSO treated samples set as 1; as to State 3 respiration driven by succinate at 10XCmax: key: 0 indicates that the drug had no effects (negative); as to State 3 respiration driven by succinate at 1XCmax: key: 0 indicates that the drug had no effects (negative)
In short: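 Rat liver mitochondria (1 mg/ml protein) exposed 5 min to kinase inhibitors in 0.1% DMSO, then O2 consumption measured by Clark-type electrode with glutamate/malate or succinate (state 4), ADP added after 3 min (state 3). Rates normalized to 0.1% DMSO controls set to 1.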

RCC V = RCC V activity in submitochondrial particles; format: biochemical, rat; details: DMSO treated samples set as 1; as to RCC V at 5XCmax: key: 0 indicates that the drug had no effects (negative)
In short: as §1

[5] = tested on: isolated rat liver mitochondria; assay: Mitochondrial ROS production (CM-H2DCFDA); details: DMSO treated samples set as 1
RCC III = RCC III activity in submitochondrial particles; format: biochemical, rat; parameters: key to RCC III at 100XCmax: activity relative to DMSO-treated controls (control set as 1 = 100%); details: 100XCmax
In short: as §1

CC(=O)c1c(C)c2cnc(Nc3ccc(N4CCNCC4)cn3)nc2n(C2CCCC2)c1=O.Cl [palbociclib hydrochloride]
0: MMP measured by Rhodamine 123 at 1XCmax ([1]; 1XCmax) | MMP measured by Rhodamine 123 at 2.5XCmax ([1]; 2.5XCmax) | MMP measured by Rhodamine 123 at 5XCmax ([1]; 5XCmax) | MMP measured by Rhodamine 123 at 10XCmax ([1]; 10XCmax) | MMP measured by Rhodamine 123 at 20XCmax ([1]; 20XCmax) | MMP measured by Rhodamine 123 at 30XCmax ([1]; 30XCmax) | MMP measured by Rhodamine 123 at 50XCmax ([1]; 50XCmax) | MMP measured by Rhodamine 123 at 100XCmax ([1]; 100XCmax) | RCC IV at 50XCmax (RCC IV) | DILI potential (based on labeling) [2] | Swelling 1XCmax ([3]; 1XCmax) | Swelling 2.5XCmax ([3]; 2.5XCmax) | Swelling 5XCmax ([3]; 5XCmax) | Swelling 10XCmax ([3]; 10XCmax) | Swelling 20XCmax ([3]; 20XCmax) | Swelling 30XCmax ([3]; 30XCmax) | Swelling 50XCmax ([3]; 50XCmax) | Swelling 100XCmax ([3]; 100XCmax) | RCC II at 1.0XCmax (RCC II; 1.0XCmax) | RCC II at 2.5XCmax (RCC II; 2.5XCmax) | RCC II at 5XCmax (RCC II; 5XCmax) | RCC II at 10XCmax (RCC II; 10XCmax) | RCC II at 20XCmax (RCC II; 20XCmax) | RCC II at 30XCmax (RCC II; 30XCmax) | RCC II at 50XCmax (RCC II; 50XCmax) | RCC II at 100XCmax (RCC II; 100XCmax) | RCC I at 10XCmax (RCC I) | State 3 respiration driven by glutamate/malate at 1XCmax ([4]; 1XCmax) | State 3 respiration driven by succinate at 1XCmax ([4]; 1XCmax) | State 4 respiration driven by glutamate/malate at 1XCmax ([4]; 1XCmax) | State 4 respiration driven by succinate at 1XCmax ([4]; 1XCmax) | State 3 respiration driven by glutamate/malate at 2.5XCmax ([4]; 2.5XCmax) | State 3 respiration driven by succinate at 2.5XCmax ([4]; 2.5XCmax) | State 4 respiration driven by glutamate/malate at 2.5XCmax ([4]; 2.5XCmax) | State 4 respiration driven by succinate at 2.5XCmax ([4]; 2.5XCmax) | State 3 respiration driven by glutamate/malate at 5XCmax ([4]; 5XCmax) | State 3 respiration driven by succinate at 5XCmax ([4]; 5XCmax) | State 4 respiration driven by glutamate/malate at 5XCmax ([4]; 5XCmax) | State 4 respiration driven by succinate at 5XCmax ([4]; 5XCmax) | State 3 respiration driven by glutamate/malate at 10XCmax ([4]; 10XCmax) | State 3 respiration driven by succinate at 10XCmax ([4]; 10XCmax) | State 4 respiration driven by glutamate/malate at 10XCmax ([4]; 10XCmax) | State 4 respiration driven by succinate at 10XCmax ([4]; 10XCmax) | State 3 respiration driven by glutamate/malate at 20XCmax ([4]; 20XCmax) | State 3 respiration driven by succinate at 20XCmax ([4]; 20XCmax) | State 4 respiration driven by glutamate/malate at 20XCmax ([4]; 20XCmax) | State 4 respiration driven by succinate at 20XCmax ([4]; 20XCmax) | State 3 respiration driven by glutamate/malate at 30XCmax ([4]; 30XCmax) | State 3 respiration driven by succinate at 30XCmax ([4]; 30XCmax) | State 4 respiration driven by glutamate/malate at 30XCmax ([4]; 30XCmax) | State 4 respiration driven by succinate at 30XCmax ([4]; 30XCmax) | State 3 respiration driven by glutamate/malate at 50XCmax ([4]; 50XCmax) | State 3 respiration driven by succinate at 50XCmax ([4]; 50XCmax) | State 4 respiration driven by glutamate/malate at 50XCmax ([4]; 50XCmax) | State 4 respiration driven by succinate at 50XCmax ([4]; 50XCmax) | State 3 respiration driven by glutamate/malate at 100XCmax ([4]; 100XCmax) | State 3 respiration driven by succinate at 100XCmax ([4]; 100XCmax) | State 4 respiration driven by glutamate/malate at 100XCmax ([4]; 100XCmax) | State 4 respiration driven by succinate at 100XCmax ([4]; 100XCmax) | RCC V at 5XCmax (RCC V; 5XCmax) | RCC V at 50XCmax (RCC V; 50XCmax) | ROS measured by CM-H2DCFDA at 1XCmax ([5]; 1XCmax) | ROS measured by CM-H2DCFDA at 2.5XCmax ([5]; 2.5XCmax) | ROS measured by CM-H2DCFDA at 5XCmax ([5]; 5XCmax) | ROS measured by CM-H2DCFDA at 10XCmax ([5]; 10XCmax) | ROS measured by CM-H2DCFDA at 20XCmax ([5]; 20XCmax) | ROS measured by CM-H2DCFDA at 30XCmax ([5]; 30XCmax) | ROS measured by CM-H2DCFDA at 50XCmax ([5]; 50XCmax) | ROS measured by CM-H2DCFDA at 100XCmax ([5]; 100XCmax) | RCC III at 100XCmax (RCC III)
